From patent US10004732B2 (Novartis AG, priority 2014, dated 2018)
Where a name gives a salt, the structure may show the parent alone.

Experiments:
PI 3-kinase alpha [1] = target: T1, PI 3-kinase alpha (Homo sapiens, UniProt P42336); experiment: Kinase Glo Luminescent Kinase Assay (Kglo), assay A; type: biochemical; settings: read-out: Assay A PI3Kα IC50
Protocol: (§1) Kinase Glo Luminescent Kinase Assay (Kglo) for Pb 3-Kinase Alpha (A), Pb 3-Kinase Beta (B), Vps34 (C), Pb 4-Kinase Beta (D)
(§2) The Kinase Glo Luminescent Kinase Assay (Promega, Madison/Wis., USA) is a homogeneous HTS method of measuring kinase activity by quantifying the amount of ATP remaining in solution following a kinase reaction.
(§3) L-α-phosphatidylinositol (PI), provided as 10 mg/ml solution in methanol, was transferred into a glass tube and dried under a nitrogen beam. It was then resuspended in 3% OctylGlucoside (1-0-n-octyl-beta-D-glucopyranoside) by vortexing and stored at 4° C. 5 μL of a mix of PI/OctylGlucoside with the PI 3-kinase alpha and PI 3-kinase beta subtypes, or Vps34 or PI 4-kinase beta were added. Kinase reactions were started by the addition of 5 μl of an ATP-mix containing in a final volume 10 μL 10 mM TRIS-HCl pH 7.5, 3 mM MgCl2, 50 mM NaCl, 0.05% CHAPS, 1 mM DTT and 1 μM ATP at room temperature.
(§4) All fits were performed with the program XLfit4 (ID Business Solutions, Guildford, UK).

PI 3-kinase beta [2] = target: T2, PI 3-kinase beta (Homo sapiens, UniProt P42338); experiment: Kinase Glo Luminescent Kinase Assay (Kglo), assay B; type: biochemical; settings: read-out: Assay B PI3Kβ IC50
Target sequence in this assay (P42338 whole entry): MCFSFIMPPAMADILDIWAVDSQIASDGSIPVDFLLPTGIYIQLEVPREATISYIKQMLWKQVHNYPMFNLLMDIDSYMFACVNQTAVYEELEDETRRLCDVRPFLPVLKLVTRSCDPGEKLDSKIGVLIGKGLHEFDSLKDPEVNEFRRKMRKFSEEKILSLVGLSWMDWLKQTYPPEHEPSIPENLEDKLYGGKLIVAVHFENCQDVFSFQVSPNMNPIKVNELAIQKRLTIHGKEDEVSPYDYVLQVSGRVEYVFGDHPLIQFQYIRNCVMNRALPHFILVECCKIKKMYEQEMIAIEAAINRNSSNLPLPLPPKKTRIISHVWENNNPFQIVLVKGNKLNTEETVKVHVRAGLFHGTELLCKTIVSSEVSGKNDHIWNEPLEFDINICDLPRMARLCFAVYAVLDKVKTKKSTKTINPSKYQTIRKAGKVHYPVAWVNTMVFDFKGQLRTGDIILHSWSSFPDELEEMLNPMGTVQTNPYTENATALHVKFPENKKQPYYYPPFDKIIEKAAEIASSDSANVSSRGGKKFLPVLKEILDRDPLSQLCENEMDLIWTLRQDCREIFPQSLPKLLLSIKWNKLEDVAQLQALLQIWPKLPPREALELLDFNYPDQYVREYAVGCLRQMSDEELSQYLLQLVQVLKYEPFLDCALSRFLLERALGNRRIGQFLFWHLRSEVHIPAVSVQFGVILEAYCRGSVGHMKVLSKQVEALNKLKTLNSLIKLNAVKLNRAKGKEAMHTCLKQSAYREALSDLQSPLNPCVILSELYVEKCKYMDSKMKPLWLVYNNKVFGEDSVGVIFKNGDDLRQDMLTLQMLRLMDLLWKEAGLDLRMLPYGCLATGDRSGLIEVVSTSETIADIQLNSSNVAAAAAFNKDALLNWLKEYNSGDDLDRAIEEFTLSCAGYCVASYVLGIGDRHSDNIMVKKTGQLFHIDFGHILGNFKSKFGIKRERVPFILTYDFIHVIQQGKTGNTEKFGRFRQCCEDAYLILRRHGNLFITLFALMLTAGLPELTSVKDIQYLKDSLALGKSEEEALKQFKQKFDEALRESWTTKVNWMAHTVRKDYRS
Target sequence in this assay (P27986 461-568 partner): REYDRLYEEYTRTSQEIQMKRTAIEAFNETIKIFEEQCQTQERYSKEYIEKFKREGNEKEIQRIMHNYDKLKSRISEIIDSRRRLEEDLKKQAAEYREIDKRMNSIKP
Protocol: as §1, §2, §3, §4

[3] = Microsomal clearance assay (M); settings: intrinsic clearance in rat liver microsomes
Protocol: The experiments were performed in 96-well glass plates at 37° C. on an automated Tecan EVO platform. Test compounds at a concentration of 10 mM in pure DMSO were diluted 1:1000 in water to 10 μM. […] Reactions were initiated by the addition of 150 μL of a cofactor solution containing 2 mM NADPH.

mTOR = mTOR (Homo sapiens, UniProt P42345); experiment: Lanthascreen kinase binding assay, assay G; settings: read-out: Assay G mTOR IC50
Protocol: Lanthascreen™ Kinase Binding Assay for mTOR (G)
Binding of an inhibitor to the kinase competes for binding with the tracer, resulting in a loss of FRET.
50 nL of compound dilutions were dispensed onto white 384-well small volume polystyrene plate.

PI 3-kinase gamma [4] = target: T3, PI 3-kinase gamma (Homo sapiens, UniProt P48736); experiment: TR-FRET Adapta assay, assay E; type: biochemical; settings: read-out: Assay E PI3Kγ IC50
Vps34 = Vps34 (Homo sapiens, UniProt Q8NEB9); experiment: Kinase Glo Luminescent Kinase Assay (Kglo), assay C; type: biochemical; settings: read-out: Assay C VPS34 IC50
PI 3-kinase delta [5] = target: T4, PI 3-kinase delta (Homo sapiens, UniProt O00329); experiment: TR-FRET Adapta assay, assay F; settings: read-out: Assay F PI3Kδ IC50
Target sequence in this assay (O00329 whole entry): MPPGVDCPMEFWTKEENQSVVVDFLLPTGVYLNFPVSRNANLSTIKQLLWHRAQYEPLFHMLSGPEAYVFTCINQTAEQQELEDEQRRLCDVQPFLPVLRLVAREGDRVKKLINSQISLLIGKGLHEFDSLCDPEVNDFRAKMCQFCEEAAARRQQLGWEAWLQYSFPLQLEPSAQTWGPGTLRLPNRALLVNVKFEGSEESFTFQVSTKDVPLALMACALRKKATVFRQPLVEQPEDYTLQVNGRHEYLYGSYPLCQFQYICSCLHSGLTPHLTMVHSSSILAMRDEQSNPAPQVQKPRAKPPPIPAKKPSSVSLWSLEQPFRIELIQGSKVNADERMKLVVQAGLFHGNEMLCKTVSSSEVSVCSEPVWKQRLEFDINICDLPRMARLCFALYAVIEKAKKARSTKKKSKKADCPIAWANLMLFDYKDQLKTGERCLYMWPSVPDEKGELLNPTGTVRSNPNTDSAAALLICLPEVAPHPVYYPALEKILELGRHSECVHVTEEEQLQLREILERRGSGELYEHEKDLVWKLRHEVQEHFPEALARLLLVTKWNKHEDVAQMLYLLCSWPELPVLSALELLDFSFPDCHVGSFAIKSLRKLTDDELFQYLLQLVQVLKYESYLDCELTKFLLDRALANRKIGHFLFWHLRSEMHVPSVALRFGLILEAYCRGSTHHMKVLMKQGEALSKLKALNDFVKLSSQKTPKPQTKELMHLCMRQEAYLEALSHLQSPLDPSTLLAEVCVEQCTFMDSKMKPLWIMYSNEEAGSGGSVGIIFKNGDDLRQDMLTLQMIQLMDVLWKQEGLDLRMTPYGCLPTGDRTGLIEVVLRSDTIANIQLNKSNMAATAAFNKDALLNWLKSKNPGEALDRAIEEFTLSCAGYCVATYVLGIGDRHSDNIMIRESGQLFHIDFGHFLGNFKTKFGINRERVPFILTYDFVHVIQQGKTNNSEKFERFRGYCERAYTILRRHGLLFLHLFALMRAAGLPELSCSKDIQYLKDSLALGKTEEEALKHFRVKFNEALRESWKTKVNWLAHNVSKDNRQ
Target sequence in this assay (P27986 461-568 partner): as the sequence (P27986 461-568 partner) above

PI 3-kinase delta [6] = target: T4, PI 3-kinase delta; experiment: Cellular assay J1, p-Akt (S473) in Rat-1 cells, Surefire format; type: cell-based; settings: non-asterisked data: version J1 (Surefire format), Rat-1 cells; read-out: Assay J PI3Kδ IC50
Target sequence in this assay (O00329 whole entry): as the sequence (O00329 whole entry) above
Target sequence in this assay (Q63787 whole entry partner): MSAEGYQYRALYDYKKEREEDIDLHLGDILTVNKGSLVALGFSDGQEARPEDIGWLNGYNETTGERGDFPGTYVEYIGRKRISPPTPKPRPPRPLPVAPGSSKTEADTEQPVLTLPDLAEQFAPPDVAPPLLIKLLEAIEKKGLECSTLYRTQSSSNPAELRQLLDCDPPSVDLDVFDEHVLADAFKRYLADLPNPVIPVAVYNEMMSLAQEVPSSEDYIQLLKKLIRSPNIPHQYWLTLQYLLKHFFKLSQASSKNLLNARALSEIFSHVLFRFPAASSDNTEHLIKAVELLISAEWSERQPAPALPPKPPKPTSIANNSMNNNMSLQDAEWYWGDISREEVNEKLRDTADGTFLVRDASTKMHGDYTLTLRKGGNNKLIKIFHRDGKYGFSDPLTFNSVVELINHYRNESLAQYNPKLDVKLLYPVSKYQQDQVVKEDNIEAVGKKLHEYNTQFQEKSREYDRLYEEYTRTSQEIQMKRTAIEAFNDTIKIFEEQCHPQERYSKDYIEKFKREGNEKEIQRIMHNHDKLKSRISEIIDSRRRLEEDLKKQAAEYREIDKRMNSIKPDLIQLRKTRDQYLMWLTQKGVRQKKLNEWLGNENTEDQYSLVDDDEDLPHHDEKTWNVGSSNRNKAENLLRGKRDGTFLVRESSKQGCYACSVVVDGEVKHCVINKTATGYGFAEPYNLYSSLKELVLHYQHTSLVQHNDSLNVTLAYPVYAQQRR

[7] = system: IL-8-induced neutrophil shape change in human whole blood; experiment: Whole blood neutrophil shape change assay (L); type: cell-based; settings: Homo sapiens, Neutrophil, IL-8, human whole blood, read-out: Assay L WBSC IC50
PI 3-kinase gamma [8] = target: T3, PI 3-kinase gamma; experiment: Cellular U937 AKT assay K1 (MSD); type: cell-based; settings: U937 cells, K1 format; read-out: Assay K1 PI3Kγ IC50
PI 3-kinase beta [9] = target: T2, PI 3-kinase beta; experiment: Cellular assay I1, p-Akt (S473) in Rat-1 cells, Surefire format; type: cell-based; settings: non-asterisked data: version I1 (Surefire format), Rat-1 cells; read-out: Assay I PI3Kβ IC50
Target sequence in this assay (P42338 whole entry): as the sequence (P42338 whole entry) above
Target sequence in this assay (Q63787 whole entry partner): as the sequence (Q63787 whole entry partner) above

PI 4-kinase beta = PI 4-kinase beta (Homo sapiens, UniProt Q9UBF8); experiment: Kinase Glo Luminescent Kinase Assay (Kglo), assay D; type: biochemical; settings: read-out: Assay D PI4Kβ IC50
PI 3-kinase alpha [10] = target: T1, PI 3-kinase alpha; experiment: Cellular assay H1, p-Akt (S473) in Rat-1 cells, Surefire format; type: cell-based; settings: non-asterisked data: version H1 (Surefire format), Rat-1 cells; read-out: Assay H PI3Kα IC50

T3 sequence (P48736 whole entry): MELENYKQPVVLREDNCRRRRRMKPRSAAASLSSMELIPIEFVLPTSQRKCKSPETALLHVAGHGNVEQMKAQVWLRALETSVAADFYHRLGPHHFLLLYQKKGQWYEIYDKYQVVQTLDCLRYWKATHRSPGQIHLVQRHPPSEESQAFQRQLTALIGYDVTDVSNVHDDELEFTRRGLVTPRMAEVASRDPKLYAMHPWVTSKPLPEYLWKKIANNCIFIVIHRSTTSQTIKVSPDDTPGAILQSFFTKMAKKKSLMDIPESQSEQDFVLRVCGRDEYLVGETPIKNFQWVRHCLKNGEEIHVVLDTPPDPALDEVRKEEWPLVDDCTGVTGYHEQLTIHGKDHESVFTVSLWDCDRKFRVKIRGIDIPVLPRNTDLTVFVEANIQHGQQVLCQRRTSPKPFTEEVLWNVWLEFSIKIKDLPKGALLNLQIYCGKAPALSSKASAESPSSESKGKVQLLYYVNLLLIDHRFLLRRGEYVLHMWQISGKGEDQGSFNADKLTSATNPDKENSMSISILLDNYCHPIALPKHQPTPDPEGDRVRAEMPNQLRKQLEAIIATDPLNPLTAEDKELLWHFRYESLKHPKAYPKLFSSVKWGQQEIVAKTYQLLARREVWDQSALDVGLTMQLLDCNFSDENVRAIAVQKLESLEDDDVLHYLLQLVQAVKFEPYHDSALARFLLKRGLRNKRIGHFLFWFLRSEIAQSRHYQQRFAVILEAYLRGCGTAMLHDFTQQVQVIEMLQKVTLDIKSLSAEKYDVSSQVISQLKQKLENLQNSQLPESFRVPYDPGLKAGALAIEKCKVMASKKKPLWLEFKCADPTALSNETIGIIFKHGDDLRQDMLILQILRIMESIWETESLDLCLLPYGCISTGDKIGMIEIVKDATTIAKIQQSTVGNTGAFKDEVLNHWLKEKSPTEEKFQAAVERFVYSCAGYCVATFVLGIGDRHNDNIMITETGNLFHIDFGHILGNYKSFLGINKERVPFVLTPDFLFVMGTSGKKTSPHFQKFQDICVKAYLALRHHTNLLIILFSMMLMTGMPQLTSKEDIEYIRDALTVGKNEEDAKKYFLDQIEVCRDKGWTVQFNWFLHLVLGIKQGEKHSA
Chain of PI 4-kinase beta (Q9UBF8 whole entry): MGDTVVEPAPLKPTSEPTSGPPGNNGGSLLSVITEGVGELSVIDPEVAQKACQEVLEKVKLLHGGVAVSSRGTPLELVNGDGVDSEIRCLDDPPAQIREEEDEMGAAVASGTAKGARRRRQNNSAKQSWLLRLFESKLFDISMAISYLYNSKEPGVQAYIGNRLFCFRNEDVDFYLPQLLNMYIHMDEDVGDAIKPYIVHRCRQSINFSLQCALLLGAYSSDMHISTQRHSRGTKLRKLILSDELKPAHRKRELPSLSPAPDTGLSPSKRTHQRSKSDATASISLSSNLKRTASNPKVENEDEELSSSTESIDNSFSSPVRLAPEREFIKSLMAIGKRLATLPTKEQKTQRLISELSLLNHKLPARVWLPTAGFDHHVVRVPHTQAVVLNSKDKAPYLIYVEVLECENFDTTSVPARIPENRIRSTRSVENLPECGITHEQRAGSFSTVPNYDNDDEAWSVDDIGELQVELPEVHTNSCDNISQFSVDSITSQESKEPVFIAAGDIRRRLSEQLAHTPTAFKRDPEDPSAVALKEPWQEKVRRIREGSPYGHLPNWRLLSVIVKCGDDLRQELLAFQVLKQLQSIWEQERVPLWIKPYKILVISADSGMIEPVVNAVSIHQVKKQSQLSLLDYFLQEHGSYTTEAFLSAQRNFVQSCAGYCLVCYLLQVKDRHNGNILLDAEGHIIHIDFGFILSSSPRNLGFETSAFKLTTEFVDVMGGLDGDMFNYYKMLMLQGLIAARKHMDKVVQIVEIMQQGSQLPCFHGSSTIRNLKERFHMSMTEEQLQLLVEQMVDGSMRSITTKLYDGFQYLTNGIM

Structure (SMILES)	IC50 (PI 3-kinase alpha [1])	IC50 (PI 3-kinase beta [2])	Assay M RLM CI(int) [3]	IC50 (mTOR)	IC50 (PI 3-kinase gamma [4])	IC50 (Vps34)	IC50 (PI 3-kinase delta [5])	IC50 (PI 3-kinase delta [6])	IC50 [7]	IC50 (PI 3-kinase gamma [8])	IC50 (PI 3-kinase beta [9])	IC50 (PI 4-kinase beta)	IC50 (PI 3-kinase alpha [10])
Cc1cc(-c2nc(-c3cc(S(=O)(=O)N[C@H]4CC[C@H](O)CC4)ccc3C)cnc2N)on1 [Example 4, Trans-3-[5-Amino-6-(3-methyl-isoxazol-5-yl)-pyrazin-2-yl]-N-(4-hydroxy-cyclohexyl)-4-methyl-benzenesulfonamide]	510 nM	3240 nM	27 µL/min/mg	6510 nM	26 nM	> 9100 nM	300 nM	910 nM	675 nM	38 nM	4460 nM	3700 nM	2550 nM
Cc1ncc(-c2nc(-c3cc(S(=O)(=O)NCC(C)(C)CO)ccc3C)cnc2N)s1 [Example 8, 3-[5-Amino-6-(2-methyl-thiazol-5-yl)-pyrazin-2-yl]-N-(3-hydroxy-2,2-dimethyl-propyl)-4-methyl-benzenesulfonamide]	40 nM	1520 nM	50 µL/min/mg	270 nM	< 3 nM	410 nM	20 nM	370 nM	169 nM	21 nM	6030 nM	1960 nM	750 nM
Cc1ccc(S(=O)(=O)N[C@H]2CC[C@H](O)CC2)cc1-c1cnc(N)c(-c2ccncc2)n1 [Example 11, Trans-3-(5-Amino-6-(pyridin-4-yl)pyrazin-2-yl)-N-(4-hydroxycyclohexyl)-4-methylbenzenesulfonamide]	140 nM	2620 nM	78 µL/min/mg	5890 nM	10 nM	> 9100 nM	130 nM	3520 nM	157 nM	57 nM	6910 nM	3580 nM	2570 nM
Cc1ccc(S(=O)(=O)N[C@H]2CC[C@H](O)CC2)cc1-c1cnc(N)c(-n2cncn2)n1 [Example 15, Trans-3-(5-Amino-6-(1H-1,2,4-triazol-1-yl)pyrazin-2-yl)-N-(4-hydroxycyclohexyl)-4-methylbenzenesulfonamide]	160 nM	1930 nM	24 µL/min/mg	> 9100 nM	18 nM	> 9100 nM	150 nM	1450 nM	166 nM	61 nM	2010 nM	5680 nM	1930 nM
Cc1ccc(S(=O)(=O)NC[C@H]2CCOC2)cc1-c1cnc(N)c(-c2cn(C)nc2C)n1 [Example 16, 3-[5-Amino-6-(1,3-dimethyl-1H-pyrazol-4-yl)-pyrazin-2-yl]-4-methyl-N—[(R)-1-(tetrahydrofuran-3-yl)methyl]-benzenesulfonamide]	140 nM	1020 nM	47 µL/min/mg	5300 nM	9 nM	> 10000 nM	250 nM	620 nM	154 nM	43 nM	1860 nM	6400 nM	900 nM
Cc1ccc(S(=O)(=O)NCC2(C)COC2)cc1-c1cnc(N)c(-c2cn(C)nc2C)n1 [Example 17, 3-[5-Amino-6-(1,3-dimethyl-1H-pyrazol-4-yl)-pyrazin-2-yl]-4-methyl-N-(3-methyl-oxetan-3-ylmethyl)-benzenesulfonamide]	220 nM	900 nM	34 µL/min/mg	6100 nM	10 nM	> 10000 nM	590 nM	1920 nM	166 nM	51 nM	8250 nM	8300 nM	2800 nM
Cc1ccc(S(=O)(=O)N[C@H]2CC[C@H](O)CC2)cc1-c1cnc(N)c(-c2nc(C3CC3)no2)n1 [Example 24, Trans-3-[5-Amino-6-(3-cyclopropyl-[1,2,4]oxadiazol-5-yl)-pyrazin-2-yl]-N-(4-hydroxy-cyclohexyl)-4-methyl-benzene sulfonamide]	200 nM	6060 nM	43 µL/min/mg	7910 nM	7 nM	> 9100 nM	60 nM	660 nM	561 nM	53 nM	6250 nM	> 9100 nM	1060 nM
Cc1ccc(S(=O)(=O)NCCC(C)(C)O)cc1-c1cnc(N)c(-n2cnc(C3CC3)n2)n1 [Example 26, 3-[5-Amino-6-(3-cyclopropyl-[1,2,4]triazol-1-yl)-pyrazin-2-yl]-N-(3-hydroxy-3-methyl-butyl)-4-methyl-benzenesulfonamide]	310 nM	6380 nM	223 µL/min/mg	> 9100 nM	3 nM	> 9100 nM	70 nM	760 nM	683 nM	54 nM	2030 nM	5470 nM	1100 nM
CCN1CCC[C@@H]1CNS(=O)(=O)c1ccc(C)c(-c2cnc(N)c(-c3cn(C)nc3C)n2)c1 [Example 27, 3-[5-Amino-6-(1,3-dimethyl-1H-pyrazol-4-yl)-pyrazin-2-yl]-N—((R)-1-ethyl-pyrrolidin-2-ylmethyl)-4-methyl-benzenesulfonamide hydrochloride]	210 nM	870 nM	60 µL/min/mg	7400 nM	47 nM	> 10000 nM	70 nM	1020 nM	562 nM	58 nM	> 10000 nM	6650 nM	> 10000 nM
Cc1ccc(S(=O)(=O)NCCC(C)(C)O)cc1-c1cnc(N)c(-c2csc(CN3CCOCC3)c2)n1 [Example 30, 3-[5-Amino-6-(5-morpholin-4-ylmethyl-thiophen-3-yl)-pyrazin-2-yl]-N-(3-hydroxy-3-methyl-butyl)-4-methyl-benzenesulfonamide]	300 nM	5210 nM	116 µL/min/mg	6990 nM	24 nM	> 9100 nM	50 nM	480 nM	407 nM	98 nM	1650 nM	7890 nM	3810 nM
Cc1ccc(S(=O)(=O)NOCC(C)(C)O)cc1-c1cnc(N)c(-n2cncn2)n1 [Example 31, 3-(5-Amino-6-[1,2,4]triazol-1-yl-pyrazin-2-yl)-N-(2-hydroxy-2-methyl-propoxy)-4-methyl-benzenesulfonamide]	160 nM	2000 nM	37 µL/min/mg	3800 nM	27 nM	> 9550 nM	120 nM	1030 nM	917 nM	40 nM	2510 nM	4400 nM	1040 nM
Cc1ccc(S(=O)(=O)NCC2(CO)COC2)cc1-c1cnc(N)c(-n2cncn2)n1 [Example 35, 3-(5-Amino-6-[1,2,4]triazol-1-yl-pyrazin-2-yl)-N-(3-hydroxymethyl-oxetan-3-ylmethyl)-4-methyl-benzenesulfonamide]	630 nM	1900 nM	25 µL/min/mg	5600 nM	25 nM	> 10000 nM	990 nM	> 10000 nM	669 nM	418 nM	> 10000 nM	3700 nM	> 10000 nM
Cc1ccc(S(=O)(=O)NC2CCC(F)(F)CC2)cc1-c1cnc(N)c(-c2cnn(C)c2)n1 [Example 54, 3-(5-Amino-6-(1-methyl-1H-pyrazol-4-yl)pyrazin-2-yl)-N-(4,4-difluorocyclohexyl)-4-methylbenzenesulfonamide]	190 nM	770 nM	141 µL/min/mg	4810 nM	17 nM	> 9100 nM	110 nM	2030 nM	2010 nM	140 nM	7410 nM	> 9100 nM	1690 nM
